Substitutions are numbered along the chain they refer to. Where no end group is shown, it is not given here.
How the values were obtained:
Test in all cases: Homologous whole cell competition binding
Conditions in all cases: homologous competition of 125I-sCT(8-32), whole cells, mean ± S.E.M., SEM
hCTR N365A = target: T1, hCTR N365A (Homo sapiens, UniProt P30988, N365A)
T1 construct: c-Myc (N); expressed in transfected cells
T1 sequence (P30988 25-474 N365A): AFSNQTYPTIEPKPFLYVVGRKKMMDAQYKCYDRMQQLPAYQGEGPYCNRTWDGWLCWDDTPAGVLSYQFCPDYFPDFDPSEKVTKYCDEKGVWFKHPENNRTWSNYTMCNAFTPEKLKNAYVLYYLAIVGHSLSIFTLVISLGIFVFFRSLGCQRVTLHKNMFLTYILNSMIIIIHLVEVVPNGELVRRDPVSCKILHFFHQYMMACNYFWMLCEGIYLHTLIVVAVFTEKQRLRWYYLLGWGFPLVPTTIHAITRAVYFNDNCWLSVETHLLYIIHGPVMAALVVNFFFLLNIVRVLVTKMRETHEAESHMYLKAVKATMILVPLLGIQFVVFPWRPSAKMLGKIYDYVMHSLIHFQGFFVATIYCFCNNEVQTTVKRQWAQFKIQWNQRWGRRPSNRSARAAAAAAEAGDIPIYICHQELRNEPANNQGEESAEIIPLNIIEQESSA
Description: (§1) Homologous radioligand competition was performed on 2.5 × 10^4 cells/well seeded into 96-well trays and cultured overnight. Cells were incubated overnight at 4 °C with two concentrations of ^125I-sCT(8-32) (between 25 and 100 pM; specific activity, 2000 Ci/mmol^9) and serial dilutions of non-iodinated sCT(8-32). Non-bound ligand was removed and bound ligand activity was measured using a γ counter (Wallac Wizard 1470 Gamma Counter, Perkin Elmer, 80% counter efficiency). Values were normalized against non-specific binding (0%) defined by the presence of 1 μM of unlabelled sCT(8-32), and total ligand bound in absence of competing sCT(8-32) (100%).
(§2) IC50 and Bmax values were estimated from competitive inhibition of ^125I-sCT(8-32) binding using a 3-parameter logistic equation (log(inhibitor versus response)) in Prism (v7; Graphpad). Data were corrected for radioligand occupancy using the Cheng-Prusoff equation in Prism; as such data are reported as pKi. Emax and EC50 were estimated from concentration-response curves using with a 3-parameter logistic equation in Prism (v7). These values are a composite of functional affinity, efficacy and stimulus response coupling. The Black and Leff operational model of agonism was applied to separate effects on pathway-specific efficacy (τ) from those that modify ligand functional affinity (pKA). Derived τ values were normalized to experimentally determined levels of cell surface expression to provide a measure of efficacy (τc) that is independent of affinity and altered cell surface receptor expression. pKi, pKA and log τc values for mutant receptors were statistically compared to those of the WT receptor using a one-way analysis of variance (ANOVA) and Dunnett’s post-test. Significance was accepted at P < 0.05.

hCTR F359A = target: T2, hCTR F359A (Homo sapiens, UniProt P30988, F359A)
T2 construct: expressed in transfected cells
T2 sequence (P30988 25-474 F359A): T1 sequence (P30988 25-474 N365A) with F335A, A341N
Description: as §1, §2

hCTR Y372A = target: T3, hCTR Y372A (Homo sapiens, UniProt P30988, Y372A)
T3 construct: c-Myc (N); expressed in transfected cells
T3 sequence (P30988 25-474 Y372A): T1 sequence (P30988 25-474 N365A) with A341N, Y348A
Description: as §1, §2

hCTR L291A = target: T4, hCTR L291A (Homo sapiens, UniProt P30988, L291A)
T4 construct: expressed in transfected cells
T4 sequence (P30988 25-474 L291A): T1 sequence (P30988 25-474 N365A) with L267A, A341N
Description: as §1, §2

Ki (hCTR N365A): 234 pM | Ki (hCTR F359A): 219 pM | Ki (hCTR Y372A): 141 pM | Ki (hCTR L291A): 1740 pM
Substance: VLGKLSQELHKLQTYPRTNTGSGTP-NH2 [sCT(8-32)]

From article PMC5908784, “Extracellular loops 2 and 3 of the calcitonin receptor selectively modify agonist binding and efficacy” (Biochemical Pharmacology, 2018)
